Source: ChEMBL document CHEMBL6109034, “Discovery of novel tetracyclic quinazolines as multi-KRASinhibitors for the treatment of solid tumors” (Bioorg Med Chem Lett, 2025)
Active and inactive are the calls of the source. No cut-off for these calls is given here.

Experiments:
ASPC1 = experiment: Antiproliferative activity against human ASPC1 cells harbouring KRAS G12D mutant assessed as reduction in cell viability incubated for 72 hrs; format: functional, cell-based
SW-620 = experiment: Antiproliferative activity against human SW620 cells harbouring KRAS G12V mutant assessed as inhibition of cell growth incubated for 72 hrs by Luminescence based assay; format: functional; conditions: SW-620, 72 h
[1] = system: GTPase KRas (Homo sapiens), P01116 [G12D]; experiment: Inhibition of KRas G12D mutant in human ASPC1 cells assessed as assessed as downregulation of DUSP4 at 0.05 to 300 nM incubated for 3 hrs by Western blot analysis; format: cell-based; conditions: dose 0.05-300 nM
HT-29 = experiment: Antiproliferative activity against human HT-29 cells harbouring wild-type KRAS assessed as cell growth inhibition by CellTiter-Glo assay; format: functional, cell-based
GTPase KRas [2] = target: T1, GTPase KRas (Homo sapiens, UniProt P01116, G12D); experiment: Inhibition of KRas G12D mutant in human SW620 cells assessed as inhibition of ERK phosphorylation at Thr202/Tyr204 residues incubated for 3 hrs by Western blot analysis; format: cell-based
GTPase KRas [3] = target: T1, GTPase KRas; experiment: Inhibition of KRas G12D mutant in human ASPC1 cells assessed as inhibition of ERK phosphorylation at Thr202/Tyr204 residues incubated for 3 hrs by Western blot analysis; format: cell-based

IC50 (ASPC1; Homo sapiens, ASPC1, 72 h) [nM] | IC50 (SW-620) [nM] | IC50 (ASPC1; aspc1) [nM] | Compound | other results
1150 | 151 |  | Nc1nc2c(-c3c(Cl)c4c5c(nc(OC[C@@]67CCCN6C[C@H](F)C7)nc5c3F)N3CCCCCC3CO4)ccc(F)c2s1 (stereo not given in full) | 
1920 | 22.6 |  | Nc1nc2c(-c3c(Cl)c4c5c(nc(OC[C@@]67CCCN6C[C@H](F)C7)nc5c3F)N3CCCOC[C@H]3CO4)ccc(F)c2s1 | 
 |  | 8780 | N#Cc1c(N)sc2c(F)ccc(-c3c(Cl)c4c5c(nc(OC[C@@]67CCCN6C[C@H](F)C7)nc5c3F)N3CCCOC[C@H]3CO4)c12 (single isomer, unassigned; atropisomer 1) | 

The next lines start with the compound.

Compound | IC50 (ASPC1; Homo sapiens, ASPC1, 72 h) [nM] | IC50 (SW-620) [nM] | IC50 (ASPC1; aspc1) [nM] | other results
Nc1nc2c(-c3c(Cl)cc4c(N5CCCOCC5)nc(OC[C@@]56CCCN5C[C@H](F)C6)nc4c3F)ccc(F)c2s1 | 8240 | 208 |  | 
N#Cc1c(N)sc2c(F)ccc(-c3c(Cl)c4c5c(nc(OC[C@@]67CCCN6C[C@H](F)C7)nc5c3F)N3CCCOC[C@H]3CO4)c12 (single isomer, unassigned; atropisomer 2) [listing 1 of 2 here] |  |  |  | Activity [1]: Active
N#Cc1c(N)sc2c(F)ccc(-c3c(Cl)c4c5c(nc(OC[C@@]67CCCN6C[C@H](F)C7)nc5c3F)N3CCCOC[C@H]3CO4)c12 (single isomer, unassigned; atropisomer 2) [listing 2 of 2 here] |  | 0.6 | 378 | IC50 (HT-29): 3230 nM; IC50 (GTPase KRas [2]): 1 nM; IC50 (GTPase KRas [3]): 0.6 nM
N#Cc1c(N)sc2c(F)ccc(-c3c(Cl)c4c5c(nc(OC[C@@]67CCCN6C[C@H](F)C7)nc5c3F)N3CCCCCC3CO4)c12 (single isomer, unassigned; atropisomer 2) |  | 4.4 | 713 | 
N#Cc1c(N)sc2c(F)ccc(-c3c(Cl)c4c5c(nc(OC[C@@]67CCCN6C[C@H](F)C7)nc5c3F)N3CCCCC[C@@H]3CO4)c12 | 3250 | 347 |  | 
N#Cc1c(N)sc2c(F)ccc(-c3c(Cl)c4c5c(nc(OC[C@@]67CCCN6C[C@H](F)C7)nc5c3F)N3CCCCCC3CO4)c12 (single isomer, unassigned; atropisomer 1) |  |  | 4000 | 
N#Cc1c(N)sc2c(F)ccc(-c3c(Cl)c4c5c(nc(OC[C@@]67CCCN6C[C@H](F)C7)nc5c3F)N3CCCCC[C@H]3CO4)c12 | 354 | 2.6 |  | 
